Measured values reported in PubChem BioAssay (NCI).
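Each compound was tested at five concentrations against cells in 96-well plates for 48 hours. TGI is the concentration that stops growth completely.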

What was measured:
Experiment in all cases: inhibition of tumour cell growth, NCI panel, 48 h
[1] = tested on: 786-0 renal
[2] = tested on: A498 renal
[3] = tested on: A549 NSCLC
[4] = tested on: CAKI-1 renal
[5] = tested on: HCC-2998 colon
[6] = tested on: HCT-15 colon
[7] = tested on: K-562 leukemia
[8] = tested on: M14 melanoma
[9] = tested on: MALME-3M melanoma
[10] = tested on: NCI-H23 lung
[11] = tested on: NCI-H522 lung
[12] = tested on: OVCAR-8 ovarian
[13] = tested on: SF-295 CNS
[14] = tested on: SK-OV-3 ovarian
[15] = tested on: SNB-19 CNS
[16] = tested on: DU-145 prostate
[17] = tested on: MDA-MB-435
[18] = tested on: T-47D breast
[19] = tested on: MCF7 breast

| Compound | TGI [1] | TGI [2] | TGI [3] | TGI [4] | TGI [5] | TGI [6] | TGI [7] | TGI [8] | TGI [9] | TGI [10] | TGI [11] | TGI [12] | TGI [13] | TGI [14] | TGI [15] | TGI [16] | TGI [17] | TGI [18] | TGI [19] |
| --- | --- | --- | --- | --- | --- | --- | --- | --- | --- | --- | --- | --- | --- | --- | --- | --- | --- | --- | --- |
| CCCN=C(N)NC#N | 65.1 µM | > 100 µM | > 100 µM | > 100 µM | > 100 µM | 38.2 µM | > 100 µM | > 100 µM | > 100 µM | > 100 µM | > 100 µM | > 100 µM | > 100 µM | > 100 µM | > 100 µM | – | – | – | – |
| CCCCN(CCCC)CC(O)c1cc(-c2ccc(C(F)(F)F)cc2)nc(-c2ccc(C(F)(F)F)cc2)c1 (centres undefined) | > 100 µM | > 100 µM | – | > 100 µM | 65.6 µM | > 100 µM | > 100 µM | > 100 µM | > 100 µM | > 100 µM | > 100 µM | > 100 µM | > 100 µM | > 100 µM | > 100 µM | > 100 µM | > 100 µM | > 100 µM | – |
| CCOC(=O)c1c(-c2ccc(OC)cc2)c(C#N)c(=S)n(C2OC(COC(C)=O)C(OC(C)=O)C(OC(C)=O)C2OC(C)=O)c1-c1ccccc1 (centres undefined) | > 100 µM | – | > 100 µM | > 100 µM | > 100 µM | > 100 µM | > 100 µM | > 100 µM | > 100 µM | > 100 µM | – | – | > 100 µM | > 100 µM | > 100 µM | > 100 µM | > 100 µM | > 100 µM | > 100 µM |
| CCN(CC)CCC(=O)/C=C/c1ccccc1 | 7.62 µM | > 60.6 µM | 39.9 µM | 14.1 µM | 34.8 µM | 32 µM | 13.6 µM | 33 µM | 33.1 µM | 48.1 µM | 24.2 µM | 52.5 µM | 40.1 µM | – | 37.1 µM | > 73.9 µM | 23.2 µM | – | 10.6 µM |
| COc1cc(C(Cc2ccccc2)NC(C)=O)oc(=O)c1 (centres undefined) | > 100 µM | > 100 µM | > 100 µM | > 100 µM | > 100 µM | > 100 µM | > 100 µM | > 100 µM | > 100 µM | > 100 µM | > 100 µM | > 100 µM | > 100 µM | > 100 µM | > 100 µM | – | – | – | – |
| CC1(C)COC(c2cccnc2/C=N/O)=N1 | > 100 µM | > 100 µM | > 100 µM | > 100 µM | – | > 100 µM | > 100 µM | > 100 µM | > 100 µM | > 100 µM | > 100 µM | > 100 µM | > 100 µM | > 100 µM | > 100 µM | – | – | – | – |
| CO/N=C/c1cc(OC)c(OC)c(OC)c1 | > 100 µM | > 100 µM | > 100 µM | > 100 µM | > 100 µM | > 100 µM | > 100 µM | > 100 µM | > 100 µM | > 100 µM | > 100 µM | > 100 µM | > 100 µM | > 100 µM | > 100 µM | – | – | – | – |
